The results in this text go back to patent US10513496B2, “Aminobenzamide derivatives as useful agents for controlling animal parasites” (BAYER INTELLECTUAL PROPERTY GMBH, priority 2007, dated 2019).

Type in all cases: in vivo
One assay concerns Boophilus microplus. Briefly: Boophilus microplus test (injection). The note with it: Rhipicephalus microplus; application rate 20 μg/animal; injected into abdomen of adult engorged female ticks; 100% = all eggs infertile. How it is done: Boophilus microplus—Test (Injection)
(§1) Solvent: Dimethyl Sulfoxide
(§2) To produce a suitable preparation of active compound, 10 mg of active compound are dissolved in 0.5 ml solvent, and the concentrate is diluted with water to the desired concentration.
Five adult engorged female ticks (Boophilus microplus) are injected with compound solution into the abdomen. Ticks are transferred into replica plates and incubated in a climate chamber for a period of time. Egg deposition of fertile eggs is monitored.
After the specified period of time, mortality in % is determined. 100% means that all eggs are infertile; 0% means that all eggs are fertile.

In the next assay the test system is Ctenocephalides felis. The experiment in a line: Ctenocephalides felis test (CTECFE). The note with it: application rate 100 ppm in cattle blood, adult unfed fleas, 100% = all fleas killed. How it is done:
Ctenocephalides felis—Test (CTECFE)
as §1
To produce a suitable preparation of active compound, 10 mg of active compound are dissolved in 0.5 ml solvent, and the concentrate is diluted with cattle blood to the desired concentration.
Approximately 10 to 15 adult unfed (Ctenocepahlides felis) are placed in flea chambers. The blood chamber, sealed with parafilm on the bottom are filled with cattle blood supplied with compound solution and placed on top of the flea chamber, so that the fleas are able to suck the blood. The blood chamber is heated to 37° C. whereas the flea chamber is kept at room temperature.
After the specified period of time, mortality in % is determined. 100% means that all the fleas have been killed; 0% means that none of the fleas have been killed.

For a further assay, the system named is Lucilia cuprina larvae. The experiment in a line: Lucillia cuprina test. Particulars: application rate 100 ppm, larvae on minced horse meat, 100% = all larvae killed. How it is done: as §1, §2
Approximately 20-30 (Lucilia cuprina larvae) are transferred into a test tube containing 1 cm^3 of minced horse meat and 0.5 ml aqueous dilution of test compound.
After the specified period of time, mortality in % is determined. 100% means that all the larvae have been killed; 0% means that none of the larvae have been killed.

The subject of another assay is Musca domestica. Briefly: Musca domestica test. Particulars: application rate 100 ppm, adults, sponge soaked with sugar and compound solution, 100% = all flies killed. How it is done:
as §1, §2
Prior to the assay, a piece or kitchen sponge is soaked with a mixture of sugar and compound solution and placed into a container. 10 adults (Musca domestica) are placed into the container and closed with a perforated lid.
After the specified period of time, mortality in % is determined. 100% means that all the flies have been killed; 0% means that none of the flies have been killed.

Consider `CCc1cc(SC(F)(F)F)cc(C)c1NC(=O)c1cccc(NC(=O)c2ccccc2F)c1` [Example I-1-186], for which the mortality at 0.02 mg in the assay with Boophilus microplus was 80%. The mortality at 100 ppm with Ctenocephalides felis and in the assay with Lucilia cuprina larvae was at least 80% in each case.

Regarding `CCc1cc(SC(F)(F)C(F)(F)F)cc(C)c1NC(=O)c1cccc(NC(=O)c2ccccc2F)c1` [Example I-1-187], the mortality at 0.02 mg with Boophilus microplus is 80%. Also, the mortality at 100 ppm in the assay on Ctenocephalides felis and in the assay on Lucilia cuprina larvae was at least 80% throughout.

For the molecule `O=C(Nc1c(I)cc(C(F)(F)F)cc1C(F)(F)F)c1cccc(NC(=O)c2ccccc2F)c1` [Example I-1-203], the mortality at 0.02 mg in the assay with Boophilus microplus was 80%. This molecule also yielded a mortality at 100 ppm in the assay with Ctenocephalides felis of at least 80%.

Take `O=C(Nc1cccc(C(=O)Nc2c(I)cc(C(F)(F)F)cc2C(F)(F)F)c1)c1ccccc1` [Example I-1-204]: the mortality at 0.02 mg in the assay on Boophilus microplus was determined as 80%. The mortality at 100 ppm with Ctenocephalides felis and in the assay with Lucilia cuprina larvae was at least 80% each time.

Regarding `O=C(Nc1cccc(C(=O)Nc2c(Br)cc(Br)cc2Br)c1)c1ccccc1` [Example I-1-205], the mortality at 0.02 mg with Boophilus microplus was determined as 80%.

As to `O=C(Nc1cccc(C(=O)Nc2c(I)cc(C(F)(F)F)cc2C(F)(F)F)c1)c1ccc(Cl)cc1` [Example I-1-206], the mortality at 100 ppm in the assay on Ctenocephalides felis and in the assay on Lucilia cuprina larvae was at least 80% each time.

In the assay on Boophilus microplus, `O=C(Nc1c(I)cc(C(F)(F)F)cc1I)c1cccc(NC(=O)c2ccccc2F)c1` [Example I-1-207] registered a mortality at 0.02 mg of 80%. Moreover, the mortality at 100 ppm in the assay with Ctenocephalides felis and with Lucilia cuprina larvae was at least 80% each time.

Molecule `O=C(Nc1c(I)cc(C(F)(F)F)cc1I)c1cccc(NC(=O)c2cccnc2F)c1` [Example I-1-208] had a mortality at 0.02 mg in the assay on Boophilus microplus of 80%. In addition, the mortality at 100 ppm with Ctenocephalides felis, in the assay with Lucilia cuprina larvae and in the assay on Musca domestica was at least 80% each time.

Consider `O=C(Nc1cccc(C(=O)Nc2c(I)cc(C(F)(F)F)cc2C(F)(F)F)c1)c1ccc(Cl)cc1` [Example I-1-211], for which the mortality at 0.02 mg with Boophilus microplus turned out to be 80%.

`O=C(Nc1cccc(C(=O)Nc2c(Br)cc(Br)cc2C(F)(F)F)c1)c1ccc(Cl)cc1` [Example I-1-212] came in with a mortality at 0.02 mg in the assay on Boophilus microplus of 80%. The mortality at 100 ppm in the assay on Ctenocephalides felis is at least 80%.

For the molecule `O=C(Nc1c(Br)cc(S(F)(F)(F)(F)F)cc1Br)c1cccc(NC(=O)c2ccccc2F)c1` [Example I-1-213], the mortality at 0.02 mg in the assay with Boophilus microplus was 80%. Further, the mortality at 100 ppm in the assay with Ctenocephalides felis and in the assay on Lucilia cuprina larvae was at least 80% in each case.
